The results in this text go back to the OligoGym collection.

HELM strings list units from the 5' end as sugar, base in round brackets, then linkage (d deoxyribose, r ribose, m 2'-O-methyl, p phosphodiester). Strings are as the collection lists them; they lack the last nucleoside at the 3' end of the tested compound. [moe] = 2'-O-(2-methoxyethyl) (MOE); [sp] = phosphorothioate linkage; [m5C] = 5-methylcytosine

The target in the series is ATXN2. Description: mouse, dose not given. The conditions noted are these: ASO.
The substance “RNA1{[moe]([m5C])[sp].[moe]([m5C])p.[moe](A)p.[moe](G)p.[moe](A)p.d(A)[sp].d(A)[sp].d(T)[sp].d([m5C])[sp].d(T)[sp].d(G)[sp].d(T)[sp].d(A)[sp].d(A)[sp].d(A)[sp].[moe](T)p.[moe](T)p.[moe]([m5C])[sp].[moe](T)}$$$$ (last 3' nucleoside missing)” displayed a 3 h FOB score of 3 score 0-7. In turn, “RNA1{[moe]([m5C])[sp].[moe]([m5C])p.[moe](A)p.[moe](T)p.[moe](A)p.d(A)[sp].d(T)[sp].d([m5C])[sp].d(T)[sp].d([m5C])[sp].d(A)[sp].d(T)[sp].d(T)[sp].d([m5C])[sp].d(T)[sp].[moe]([m5C])p.[moe](A)p.[moe](T)[sp].[moe](A)}$$$$ (last 3' nucleoside missing)” yielded a 3 h FOB score of 2.25 score 0-7. To “RNA1{[moe]([m5C])[sp].[moe]([m5C])p.[moe](A)p.[moe](T)p.[moe](A)p.d([m5C])[sp].d(G)[sp].d([m5C])[sp].d(G)[sp].d(G)[sp].d(T)[sp].d(G)[sp].d(A)[sp].d(A)[sp].d(T)[sp].[moe](T)p.[moe]([m5C])p.[moe](T)[sp].[moe](G)}$$$$ (last 3' nucleoside missing)” belongs 4.5 score 0-7; to “RNA1{[moe]([m5C])[sp].[moe]([m5C])p.[moe](G)p.[moe](G)p.[moe](A)p.d(T)[sp].d(T)[sp].d(G)[sp].d(T)[sp].d(T)[sp].d(T)[sp].d(T)[sp].d([m5C])[sp].d(T)[sp].d(T)[sp].[moe]([m5C])p.[moe](A)p.[moe](T)[sp].[moe](T)}$$$$ (last 3' nucleoside missing)”, 1 score 0-7; to “RNA1{[moe]([m5C])[sp].[moe]([m5C])p.[moe](T)p.[moe](A)p.[moe](T)[sp].d([m5C])[sp].d(A)[sp].d(T)[sp].d([m5C])[sp].d(A)[sp].d(T)[sp].d(T)[sp].d(T)[sp].[moe](T)p.[moe]([m5C])p.[moe]([m5C])[sp].[moe](A)}$$$$ (last 3' nucleoside missing)”, 1 score 0-7. “RNA1{[moe]([m5C])[sp].[moe]([m5C])p.[moe](T)p.[moe](A)p.[moe](T)p.[moe]([m5C])p.d(A)[sp].d(T)[sp].d([m5C])[sp].d(A)[sp].d(T)[sp].d(T)[sp].d(T)[sp].d(T)[sp].d([m5C])[sp].d([m5C])[sp].[moe](A)p.[moe](G)[sp].[moe](G)}$$$$ (last 3' nucleoside missing)” displayed a 3 h FOB score of 1.25 score 0-7. “RNA1{[moe]([m5C])[sp].[moe]([m5C])p.[moe](T)p.[moe](A)p.[moe](T)p.d([m5C])[sp].d(A)[sp].d(T)[sp].d([m5C])[sp].d(A)[sp].d(T)[sp].d(T)[sp].d(T)[sp].d(T)[sp].d([m5C])[sp].[moe]([m5C])p.[moe](A)p.[moe](G)[sp].[moe](G)}$$$$ (last 3' nucleoside missing)” displayed a 3 h FOB score of 5.5 score 0-7. To “RNA1{[moe]([m5C])[sp].[moe]([m5C])p.[moe](T)p.[moe](A)p.d(T)[sp].d([m5C])[sp].d(A)[sp].d(T)[sp].d([m5C])[sp].d(A)[sp].d(T)[sp].d(T)[sp].d(T)[sp].d(T)[sp].[moe]([m5C])p.[moe]([m5C])p.[moe](A)p.[moe](G)[sp].[moe](G)}$$$$ (last 3' nucleoside missing)” belongs 1.75 score 0-7; to “RNA1{[moe]([m5C])[sp].[moe]([m5C])p.[moe]([m5C])p.[moe](A)p.[moe](A)p.d(A)[sp].d(G)[sp].d(G)[sp].d(G)[sp].d(T)[sp].d(T)[sp].d(A)[sp].d(A)[sp].d(T)[sp].d(T)[sp].[moe](A)p.[moe](G)p.[moe](G)[sp].[moe](A)}$$$$ (last 3' nucleoside missing)”, 1 score 0-7.
